Legend:
[1] = test system: Italian ryegrass; assay: Test Example 4: herbicidal effect by soil treatment (Table 19, symbol K); type: in vivo, Italian ryegrass (Lolium multiflorum); conditions: amount of applied herbicide 320 g/ha
In short: (§1)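 Three weeks of greenhouse growth at 25° C. to 30° C. followed a uniform surface spray of water-diluted emulsion at a predetermined herbicide amount. Seeds had been sown beforehand under about 1.5 cm of sterilized diluvial soil. Grading followed criteria set out in an earlier test.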

[2] = test system: oval-leafed pondweed; assay: Test Example 2: herbicidal activity, application during weed generation under submerged conditions (Table 17, symbol C); type: in vivo, oval-leafed pondweed (Monochoria vaginalis); conditions: AAH 320 g/ha; application during weed generation, submerged conditions
In short: (§2)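 Herbicide emulsion, diluted with water to the chosen amount, is applied onto 4 cm floodwater over alluvial soil where the weeds were co-sown and raised at 25–30° C. Application timing: 1–2 leaves. Assessment: three weeks afterwards.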

[3] = test system: blackgrass; assay: Test Example 5: herbicidal effect by foliage application, plastic box (Table 20, symbol J); type: in vivo, blackgrass (Alopecurus myosuroides); conditions: foliage application
In short: (§3)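 Plants sown in sterilized diluvial soil and grown 14 days in a greenhouse at 25° C to 30° C, then sprayed on the foliage with the compound's emulsion diluted in water to a predetermined herbicide amount. Injury to weeds and crops scored three weeks after application on a visual rating scale.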

[4] = test system: Japanese bulrush; assay: Test Example 1: herbicidal activity, application before weed generation under submerged conditions (Table 16, symbol B); type: in vivo, Japanese bulrush (Schoenoplectus juncoides); conditions: amount of applied herbicide 320 g/ha
In short: (§4)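 Emulsion formulation, water-diluted to set dose, was put onto the flooded surface (4 cm depth, alluvial soil) the same day weeds were sown and 2.5-leaf rice transplanted. After 3 weeks at 25-30 °C under glass, each species was rated 0 (≤5% kill) to 5 (≥90% kill).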

[5] = test system: redroot pigweed; assay: Test Example 5: herbicidal effect by foliage application, plastic box (Table 20, symbol N); type: in vivo, redroot pigweed (Amaranthus retroflexus); conditions: foliage application, AAH 320 g/ha, evaluated three weeks after application
In short: as §3

[6] = test system: late watergrass; assay: Test Example 1: herbicidal activity, application before weed generation under submerged conditions (Table 16, symbol A); type: in vivo, late watergrass (Echinochloa oryzicola); conditions: amount of applied herbicide 320 g/ha
In short: as §4

[7] = test system: blackgrass; assay: Test Example 4: herbicidal effect by soil treatment (Table 19, symbol J); type: in vivo, blackgrass (Alopecurus myosuroides); conditions: amount of applied herbicide 320 g/ha
In short: as §1

[8] = test system: barnyard grass; assay: Test Example 5: herbicidal effect by foliage application, plastic box (Table 20, symbol H); type: in vivo, barnyard grass (Echinochloa crus-galli); conditions: foliage application
In short: as §3

[9] = test system: southern crabgrass; assay: Test Example 4: herbicidal effect by soil treatment (Table 19, symbol F); type: in vivo, southern crabgrass (Digitaria ciliaris); conditions: amount of applied herbicide 320 g/ha
In short: as §1

[10] = test system: wild oat; assay: Test Example 4: herbicidal effect by soil treatment (Table 19, symbol I); type: in vivo, wild oat (Avena fatua); conditions: amount of applied herbicide 320 g/ha
In short: as §1

[11] = test system: Japanese bulrush; assay: Test Example 2: herbicidal activity, application during weed generation under submerged conditions (Table 17, symbol B); type: in vivo, Japanese bulrush (Schoenoplectus juncoides); conditions: AAH 320 g/ha; application during weed generation, submerged conditions
In short: as §2

[12] = test system: green foxtail; assay: Test Example 5: herbicidal effect by foliage application, plastic box (Table 20, symbol G); type: in vivo, green foxtail (Setaria viridis); conditions: foliage application
In short: as §3

[13] = test system: wild oat; assay: Test Example 5: herbicidal effect by foliage application, plastic box (Table 20, symbol I); type: in vivo, wild oat (Avena fatua); conditions: foliage application
In short: as §3

[14] = test system: chickweed; assay: Test Example 5: herbicidal effect by foliage application, plastic box (Table 20, symbol P); type: in vivo, common chickweed (Stellaria media); conditions: foliage application
In short: as §3

[15] = test system: redroot pigweed; assay: Test Example 4: herbicidal effect by soil treatment (Table 19, symbol N); type: in vivo, redroot pigweed (Amaranthus retroflexus); conditions: amount of applied herbicide 320 g/ha
In short: as §1

[16] = test system: barnyard grass; assay: Test Example 4: herbicidal effect by soil treatment (Table 19, symbol H); type: in vivo, barnyard grass (Echinochloa crus-galli); conditions: amount of applied herbicide 320 g/ha
In short: as §1

[17] = AAH 320 g/ha, evaluated three weeks after application
[18] = 320 g/ha, three weeks after application

Row | SMILES | herbicidal effect, K: Italian ryegrass [1] | herbicidal effect rating, C: oval-leafed pondweed [2] | Herbicidal effect, B: Japanese bulrush [4] | Herbicidal effect, A: late watergrass [6] | herbicidal effect, J: blackgrass [7] | herbicidal effect, F: southern crabgrass [9] | herbicidal effect, I: wild oat [10] | herbicidal effect rating, B: Japanese bulrush [11] | herbicidal effect, N: redroot pigweed [15] | K: Italian ryegrass, herbicidal effect grade [1] | herbicidal effect on blackgrass (J) [3, 18] | H: barnyard grass, herbicidal effect grade [16] | J: blackgrass, herbicidal effect grade [7] | herbicidal effect on barnyard grass (H) [8, 18] | F: southern crabgrass, herbicidal effect grade [9] | I: wild oat, herbicidal effect grade [10] | herbicidal effect on green foxtail (G) [12, 18] | herbicidal effect on wild oat (I) [13, 18] | N: redroot pigweed, herbicidal effect grade [15] | also measured
1 | Cc1nn(C)c(=O)c(-c2c(-c3cnccc3C(F)(F)F)sc3ccc(F)cc23)c1O [2-387] | 4 (Herbicidal rate of 70% or more and less than 90%) | 4 (Herbicidal rate of 70% or more and less than 90%) | 3 (Herbicidal rate of 40% or more and less than 70%) | 3 (Herbicidal rate of 40% or more and less than 70%) | 0 (Herbicidal rate of 5% or less (almost no effect)) | 3 (Herbicidal rate of 40% or more and less than 70%) | 1 (Herbicidal rate of 5% or more and less than 20%) | 4 (Herbicidal rate of 70% or more and less than 90%) | 5 (Herbicidal rate of 90% or more (almost completely withered)) |  |  |  |  |  |  |  |  |  |  | J: blackgrass, herbicidal effect (criteria 0-5) [3, 17]: 4 (Herbicidal rate of 70% or more and less than 90%); N: redroot pigweed, herbicidal effect (criteria 0-5) [5]: 5 (Herbicidal rate of 90% or more (almost completely withered)); H: barnyard grass, herbicidal effect (criteria 0-5) [8, 17]: 5 (Herbicidal rate of 90% or more (almost completely withered)); G: green foxtail, herbicidal effect (criteria 0-5) [12, 17]: 3 (Herbicidal rate of 40% or more and less than 70%); I: wild oat, herbicidal effect (criteria 0-5) [13, 17]: 4 (Herbicidal rate of 70% or more and less than 90%); P: chickweed, herbicidal effect (criteria 0-5) [14, 17]: 5 (Herbicidal rate of 90% or more (almost completely withered))
2 | CCOc1ccccc1-c1sc2ccc(F)cc2c1-c1c(O)c(CC)nn(C)c1=O [2-416] | 0 (Herbicidal rate of 5% or less (almost no effect)) | 2 (Herbicidal rate of 20% or more and less than 40%) | 3 (Herbicidal rate of 40% or more and less than 70%) | 3 (Herbicidal rate of 40% or more and less than 70%) | 0 (Herbicidal rate of 5% or less (almost no effect)) | 0 (Herbicidal rate of 5% or less (almost no effect)) | 0 (Herbicidal rate of 5% or less (almost no effect)) | 3 (Herbicidal rate of 40% or more and less than 70%) | 0 (Herbicidal rate of 5% or less (almost no effect)) |  |  |  |  |  |  |  |  |  |  | J: blackgrass, herbicidal effect grade [3, 18]: 0 (Herbicidal rate of 5% or less (almost no effect)); herbicidal effect, H: barnyard grass [16]: 0 (Herbicidal rate of 5% or less (almost no effect)); H: barnyard grass, herbicidal effect grade [8, 18]: 3 (Herbicidal rate of 40% or more and less than 70%); G: green foxtail, herbicidal effect grade [12, 18]: 2 (Herbicidal rate of 20% or more and less than 40%); I: wild oat, herbicidal effect grade [13, 18]: 0 (Herbicidal rate of 5% or less (almost no effect)); P: chickweed, herbicidal effect grade [14, 18]: 5 (Herbicidal rate of 90% or more (almost completely withered))
3 | CCCOc1ccc(-c2oc3ccccc3c2-c2c(O)c(C)nn(C)c2=O)cc1 [8-003] |  | 3 (Herbicidal rate of 40% or more and less than 70%) | 5 (Herbicidal rate of 90% or more (almost completely withered)) | 5 (Herbicidal rate of 90% or more (almost completely withered)) |  |  |  | 3 (Herbicidal rate of 40% or more and less than 70%) |  | 4 (Herbicidal rate of 70% or more and less than 90%) | 4 (Herbicidal rate of 70% or more and less than 90%) | 5 (Herbicidal rate of 90% or more (almost completely withered)) | 1 (Herbicidal rate of 5% or more and less than 20%) | 5 (Herbicidal rate of 90% or more (almost completely withered)) | 3 (Herbicidal rate of 40% or more and less than 70%) | 0 (Herbicidal rate of 5% or less (almost no effect)) | 5 (Herbicidal rate of 90% or more (almost completely withered)) | 1 (Herbicidal rate of 5% or more and less than 20%) | 5 (Herbicidal rate of 90% or more (almost completely withered)) | 
4 | C=CCOc1ccc(-c2oc3ccccc3c2-c2c(O)c(C)nn(C)c2=O)cc1 [8-004] |  | 3 (Herbicidal rate of 40% or more and less than 70%) | 5 (Herbicidal rate of 90% or more (almost completely withered)) | 5 (Herbicidal rate of 90% or more (almost completely withered)) |  |  |  | 3 (Herbicidal rate of 40% or more and less than 70%) |  | 4 (Herbicidal rate of 70% or more and less than 90%) | 3 (Herbicidal rate of 40% or more and less than 70%) | 4 (Herbicidal rate of 70% or more and less than 90%) | 0 (Herbicidal rate of 5% or less (almost no effect)) | 3 (Herbicidal rate of 40% or more and less than 70%) | 4 (Herbicidal rate of 70% or more and less than 90%) | 0 (Herbicidal rate of 5% or less (almost no effect)) | 3 (Herbicidal rate of 40% or more and less than 70%) | 3 (Herbicidal rate of 40% or more and less than 70%) | 5 (Herbicidal rate of 90% or more (almost completely withered)) | 
5 | COCCOc1ccc(-c2oc3ccccc3c2-c2c(O)c(C)nn(C)c2=O)cc1 [Compound No. 8-007, 5-hydroxy-4-(2-(4-(2-methoxyethoxy)phenyl)benzofuran-3-yl)-2,6-dimethylpyridazin-3-(2H)-one] |  | 3 (Herbicidal rate of 40% or more and less than 70%) | 5 (Herbicidal rate of 90% or more (almost completely withered)) | 5 (Herbicidal rate of 90% or more (almost completely withered)) |  |  |  | 4 (Herbicidal rate of 70% or more and less than 90%) |  | 4 (Herbicidal rate of 70% or more and less than 90%) | 5 (Herbicidal rate of 90% or more (almost completely withered)) | 5 (Herbicidal rate of 90% or more (almost completely withered)) | 3 (Herbicidal rate of 40% or more and less than 70%) | 5 (Herbicidal rate of 90% or more (almost completely withered)) | 5 (Herbicidal rate of 90% or more (almost completely withered)) | 0 (Herbicidal rate of 5% or less (almost no effect)) | 5 (Herbicidal rate of 90% or more (almost completely withered)) | 1 (Herbicidal rate of 5% or more and less than 20%) | 5 (Herbicidal rate of 90% or more (almost completely withered)) | 

From patent US20230085307A1, “PYRIDAZINONE COMPOUND AND HERBICIDE” (NISSAN CHEMICAL CORPORATION, priority 2019, published 2023)
